{"source": "patent US20100172870A1", "about": "“METHODS, USES AND COMPOSITIONS FOR MODULATING REPLICATION OF HCV THROUGH THE FARNESOID X RECEPTOR (FXR) ACTIVATION OR INHIBITION” (priority 2006, published 2010)", "key": {"[1]": {"tested_on": "genotype 1b replicon (R1b)", "assay": "HCV subgenomic replicon R1b luciferase assay", "type": "cell-based, hepatitis C virus (HCV)", "description": "(§1) Replicons: Three subgenomic replicons were used in this study: two replicative forms called R1a and R1b according to their genotype origin and a derivative of the R1b replicon with a mutation in the RNA-dependant RNA polymerase (Rp-del) which is thus unable to replicate and was used as a negative control in all experiments. They are bicistronic RNAs which contains the firefly luciferase (Photinus pyralis) reporter gene downstream of the HCV IRES and the sequence coding for the polyprotein NS3 to NS5B downstream of the encephalomyocarditis virus (EMCV) IRES.\nRNA transfection: The replicons were transfected into Huh7 cells by electroporation.\nSubconfluent monolayers of Huh7 cells were detached from the culture dish by trypsin treatment and rinsing with complete DMEM. […] 400 μL of the cell suspension was mixed by gentle pipetting with 8 μg RNA (R1a, R1b or Rp-del) and transferred into an electroporation cuvette with a gap-width of 0.4 cm (BioRad). The mixture was immediately subjected to one electric pulse at 270 V, 950 μF and maximum resistance using a Gene Pulser System (BioRad).\nAfter electroporation the 400 μL of each cell suspension was diluted in 9 mL complete DMEM and pooled together before being seeded onto 24-well plates (1 mL per well).\nLuciferase Assay: Cells were washed with PBS and scraped off the plate with 80 μL of 1× Luciferase Cell Culture Lysis Reagent (Promega). 40 μL of the lysate were transferred to a 96-well plate and mixed with 200 μL of Luciferase Assay Reagent (Promega). Luminescence expressed as relative light units (RLU) was measured immediately on a scintillation counter (Top Count NXT, Perkin Elmer) for 10 s.\n(§2) The data are averages from triplicate cultures. […] The values are expressed as relative ratios of the values obtained 4 h after electroporation. Unless otherwise stated, the RLU values were determined 72 h after transfection when cells were confluent."}, "FXR": {"target": "T1, FXR (Homo sapiens, UniProt Q96RI1)", "T1 construct": "host or cells: HepG2", "T1 sequence (Q96RI1 1-486)": "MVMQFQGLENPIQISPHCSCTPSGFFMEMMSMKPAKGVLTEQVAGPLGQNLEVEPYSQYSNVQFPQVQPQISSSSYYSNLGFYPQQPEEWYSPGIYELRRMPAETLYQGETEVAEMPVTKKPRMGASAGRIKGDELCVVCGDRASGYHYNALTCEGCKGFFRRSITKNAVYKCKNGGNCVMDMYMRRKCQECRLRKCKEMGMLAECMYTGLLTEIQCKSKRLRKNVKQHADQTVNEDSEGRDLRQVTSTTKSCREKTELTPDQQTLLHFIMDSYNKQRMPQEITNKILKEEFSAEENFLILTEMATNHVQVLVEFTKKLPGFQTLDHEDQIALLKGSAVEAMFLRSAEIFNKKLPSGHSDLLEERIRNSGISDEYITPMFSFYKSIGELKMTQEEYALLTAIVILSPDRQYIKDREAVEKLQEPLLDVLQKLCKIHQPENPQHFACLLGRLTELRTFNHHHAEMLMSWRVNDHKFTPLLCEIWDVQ", "settings": "Urizar N L. et al. 2002, cited from earlier work"}, "[2]": {"tested_on": "genotype 1a replicon (R1a)", "assay": "HCV subgenomic replicon R1a luciferase assay", "type": "cell-based, hepatitis C virus (HCV)", "settings": "Huh7-Lunet cells, 72 h of treatment, CDCA 100 μM or GGS 10 μM", "description": "as §1, with “IRES. […]” for “IRES.”\nSubconfluent monolayers of Huh7 cells were detached from the culture dish by trypsin treatment and rinsing with complete DMEM. The cells were washed once with phosphate buffer saline (PBS), counted and resuspended at 10^7 cells per mL in Cytomix buffer (Van den Hoff, M J. Et al. 1992). […]\nLuciferase Assay: Cells were washed with PBS and scraped off the plate with 80 μL of 1× Luciferase Cell Culture Lysis Reagent (Promega). […] Luminescence expressed as relative light units (RLU) was measured immediately on a scintillation counter (Top Count NXT, Perkin Elmer) for 10 s.\nas §2"}, "[3]": {"tested_on": "non-structural proteins NS4a and NS5a in R1b-transfected cells", "assay": "HCV protein expression by immunofluorescence staining and FACS analysis", "type": "cell-based, hepatitis C virus (HCV)", "settings": "for NS5a positive cells by FACS analysis: 3 days of treatment (untreated 22%); for mean fluorescence intensity in the positive cells: NS5a-labeling, 3 days (untreated 16)", "method": "Immunofluorescence staining: Three days after electroporation, cells were plated in 8-well chamber slides at a density of 5×10^4 cells per well. 24 hours after, slides were washed in PBS and fixed in ⅔ acetone-ethanol for 5 minutes at −20° C. followed by 50 minutes block in PBS-glycin 0.2M. Primary antibodies were added to the cells at a 1:500 dilution in PBS-glycin 0.2M for 1 h at room temperature. After 3 washes in PBS, fluorescein conjugated secondary antibodies (Jackson ImmunoResearch) were added to the cells at a 1:50 dilution in PBS-glycin 0.2M for 40 minutes at room temperature. In the meantime, cells were counterstained with Evans Blue (Merck).\nFACS analysis: 72 h post-electroporation, single-cell suspension was prepared for FACS analysis. Briefly 0.8.10^6 cells were fixed and permeabilised for 15 min at room temperature with Cytofix/Cytoperm (PharMingen). Cells were stained for 30 min with primary antibodies at a 1:500 dilution in Perm/Wash Buffer (PharMingen). Bound monoclonal antibody was detected by incubation for 30 min at 4° C. with secondary antibody diluted 1:100 in Perm/Wash Buffer. The stained cells were resuspended in PBS prior to analysis using a FACSCalibur 3C (BD Biosciences)."}, "[4]": {"tested_on": "replicon transfected cells (Huh7)", "assay": "Toxicity for Huh7 / replicon transfected cells", "type": "cell-based, human", "description": "BAs, sterols and fatty acids are structurally related natural ligands of the NR1 family of nuclear receptors expressed in the liver and intestine. […] BAs were recently described as the natural ligands for FXR (Makishima M. et al. 2002; Parks D J. et al. 1999). To examine whether BAs were mediating their effects on HCV RNA replication through FXR we tested a panel of FXR ligands including the two formerly described FXR ligands that activate FXR at supraphysiological concentrations, farnesol and the synthetic retinoid TTNPB at a concentration of 10 μM each and other BAs such as CA, LCA, and UDCA, all at a concentration of 100 μM (FIG. 4B)."}}}
{"compound": "CC(=O)[C@H]1CC[C@H]2[C@@H]3CC=C4C[C@@H](O)CC[C@]4(C)[C@H]3CC[C@]12C", "note": "[pregnenolone]", "values": [{"measurement": "effect on luciferase activity at 10 μM", "setting": "[1]; Huh7 cells, 72 h (FIG. 4B)", "result": "None of these compounds induced any upregulation of the luciferase activity"}]}
{"compound": "CC(C)=CCCC(C)=CCCC(C)=CCO", "note": "[farnesol]", "values": [{"measurement": "effect on luciferase activity at 10 μM", "setting": "[1]; Huh7 cells, 72 h (FIG. 4B)", "result": "slightly increased"}]}
{"compound": "CC(C)CCC(O)[C@@H](C)[C@H]1CC[C@H]2[C@@H]3CC=C4C[C@@H](O)CC[C@]4(C)[C@H]3CC[C@]12C", "note": "(some centres unmarked) [22-hydroxycholesterol]", "values": [{"measurement": "effect on luciferase activity at 5 μM", "setting": "[1]; Huh7 cells, 72 h (FIG. 4B)", "result": "did not show any effect on replication"}]}
{"compound": "C[C@H](CCC(=O)O)[C@H]1CC[C@H]2[C@@H]3[C@H](O)C[C@@H]4C[C@H](O)CC[C@]4(C)[C@H]3C[C@H](O)[C@]12C", "note": "[CA, cholic acid]", "values": [{"measurement": "effect on luciferase activity at 100 μM", "setting": "[1]; Huh7 cells, 72 h (FIG. 4B)", "result": "only weak activity"}]}
{"compound": "CC(=O)[C@H]1CC[C@H]2[C@@H]3CCC4=CC(=O)CC[C@]4(C)[C@H]3CC[C@]12C", "note": "[progesterone]", "values": [{"measurement": "effect on luciferase activity at 5 μM", "setting": "[1]; Huh7 cells, 72 h (FIG. 4B)", "result": "None of these compounds induced any upregulation of the luciferase activity"}]}
{"compound": "C[C@H](CCCC(C)(C)O)[C@H]1CC[C@H]2[C@@H]3CC=C4C[C@@H](O)CC[C@]4(C)[C@H]3CC[C@]12C", "note": "[25-hydroxycholesterol]", "values": [{"measurement": "effect on luciferase activity at 1 μM", "setting": "[1]; Huh7 cells, 1 μM, 72 h (FIG. 4B)", "result": "did not show any effect on replication"}]}
{"compound": "C/C=C1\\C(=O)CC2C3CCC4=CC(=O)CC[C@]4(C)C3CC[C@]12C", "note": "(stereo partly drawn) [GGS, trans-4,17(20)-pregnadiene-3,16-dione]", "values": [{"measurement": "effect of GGS alone on FXR activity", "setting": "FXR; HepG2 cells, bile salt export pump promoter-driven luciferase construct", "result": "had no effect"}, {"measurement": "concentration range antagonizing FXR", "setting": "FXR", "result": "micromolar range"}, {"measurement": "response of genotype 1a replicon to FXR-modulation", "setting": "[2]", "result": "same behaviour as genotype 1b"}, {"measurement": "NS4a and NS5a expression", "setting": "[3]; 3 days of treatment", "result": "almost completely abolished"}, {"measurement": "NS5a positive cells by FACS analysis", "setting": "[3]", "result": 4, "unit": "%"}, {"measurement": "mean fluorescence intensity in the positive cells", "setting": "[3]", "result": "very weak fluorescence intensity"}, {"measurement": "inhibition at 20 µM", "setting": "[1]; Hepatitis C virus, Huh-7, Huh7-Lunet cells, 20 μM, 72 h, read-out: inhibition of the replication", "result": "≤ 95", "unit": "%"}, {"measurement": "IC50", "setting": "[1]; Hepatitis C virus, Huh-7, Huh7-Lunet cells, basal replication, 72 h, read-out: inhibitory concentration causing a decrease of half the basal activity (IC50)", "result": "~2000", "unit": "nM"}, {"measurement": "inhibition of the effect of CDCA on replication", "setting": "[1]; Huh7-Lunet cells, CDCA 100 μM, guggulsterone 0.01 μM up to 20 μM, 72 h", "result": "inhibited in a dose-dependent fashion"}, {"measurement": "further decrease of luciferase activity when associated to a given concentration of IFN", "setting": "[1]; Huh7-Lunet cells, GGS 10 μM plus IFN, 72 h", "result": "about 10 fold"}, {"measurement": "inhibition of the basal replication of HCV", "setting": "[1]; Huh7-Lunet cells, absence of BAs stimulation, 72 h", "result": "could also inhibit the basal replication"}, {"measurement": "concentrations toxic for the replicon transfected cells", "setting": "[4]; replicon transfected cells", "result": 40, "unit": "µM"}]}
{"compound": "CC(C)CCC[C@@H](C)[C@H]1CC[C@H]2[C@@H]3CC=C4C[C@@H](O)CC[C@]4(C)[C@H]3CC[C@]12C", "note": "[cholesterol]", "values": [{"measurement": "effect on luciferase activity at 10 μM", "setting": "[1]; Huh7 cells, 72 h (FIG. 4B)", "result": "did not show any effect on replication"}]}
{"compound": "C/C(=C\\c1ccc(C(=O)O)cc1)c1ccc2c(c1)C(C)(C)CCC2(C)C", "note": "[TTNPB, (E)-[(tetrahydrotetramethylnaphthalenyl)propenyl]benzoic acid]", "values": [{"measurement": "effect on luciferase activity at 10 μM", "setting": "[1]; Huh7 cells, 72 h (FIG. 4B)", "result": "slightly increased"}]}
{"compound": "C[C@H](CCC(=O)O)[C@H]1CC[C@H]2[C@@H]3[C@H](O)C[C@@H]4C[C@H](O)CC[C@]4(C)[C@H]3CC[C@]12C", "note": "[CDCA, chenodeoxycholic acid]", "values": [{"measurement": "response of genotype 1a replicon to FXR-modulation", "setting": "[2]", "result": "same behaviour as genotype 1b"}, {"measurement": "NS5a positive cells by FACS analysis", "setting": "[3]", "result": 27, "unit": "%"}, {"measurement": "mean fluorescence intensity in the positive cells", "setting": "[3]", "result": 39}, {"measurement": "effect on luciferase activity at 100 μM", "setting": "[1]; Huh7 cells, 72 h (FIG. 4B)", "result": "most potent activator"}, {"measurement": "effect on luciferase activity, dose-response", "setting": "[1]; Huh7 cells, 10, 50 or 100 μM, 72 h", "result": "dose-dependent"}, {"measurement": "concentration reaching maximum level of luciferase activity", "setting": "[1]; Huh7 cells, 72 h", "result": 100, "unit": "µM"}, {"measurement": "lowest concentration with detectable specific activity on luciferase", "setting": "[1]; Huh7 cells, 72 h", "result": 10, "unit": "µM"}, {"measurement": "up-regulation of HCV RNA replication, comparison of free BAs", "setting": "[1]; Huh7 cells, dose-response, 72 h", "result": "more efficiently than DCA"}]}
{"compound": "C[C@H](CCC(=O)O)[C@H]1CC[C@H]2[C@@H]3CC[C@@H]4C[C@H](O)CC[C@]4(C)[C@H]3C[C@H](O)[C@]12C", "note": "[DCA, deoxycholic acid]", "values": [{"measurement": "concentration reaching maximum level of luciferase activity", "setting": "[1]; Huh7 cells, 72 h", "result": 100, "unit": "µM"}, {"measurement": "increase of luciferase activity", "setting": "[1]; Huh7 cells, DCA 100 μM, 72 h of treatment, vs untreated R1b cells", "result": 15, "unit": "fold"}, {"measurement": "time over which high levels of luciferase activities could be maintained", "setting": "[1]; Huh7 cells, DCA 100 μM, long-term culture with passages every 3 or 4 days", "result": "more than 2 weeks"}, {"measurement": "mortality of treated cells compared to untreated", "setting": "[4]; Huh7 cells, 100 μM", "result": "No increase in the mortality"}]}
